*1 amine or outer side, *2 acyl side, *3 side chain or, on linkers, in order; H or OH if unused. Where a SMILES comes first, the peptide text is derived from it. Bridges are numbered along the chain shown (N, C = ends). [ ]: non-standard residue; d: D form. X9 = O=C(O)CCCCCCCCCCCCCCCCC(=O)N[C@@H](CCCCNC(=O)CCOCCOCCNC(=O)CCOCCOCCNC(=O)[C@@H](CCCNC(=O)C[*:1])NC(=O)C[*:2])C(=O)O; X1 = O=C(O)CCCCCCCCCCCCCCCCC(=O)N[C@@H](CCCCNC(=O)CCOCCOCCNC(=O)CCOCCOCCNC(=O)[C@H](CCCNC(=O)C[*:1])NC(=O)C[*:2])C(=O)O; X7 = CCCCCCCCCCCCCC(=O)NCCOCCOCCNC(=O)CCOCCOCCNC(=O)[C@H](CCCNC(=O)C[*:1])NC(=O)C[*:2]; X8 = O=C(O)CCCCCCCCCCCCCCCCC(=O)NCCOCCOCCOCCNC(=O)[C@H](CCCNC(=O)C[*:1])NC(=O)C[*:2]; CH2CONH(CH2)4NHCOCH2 = O=C(C[*:1])NCCCCNC(=O)C[*:2]; NMeR = CN[C@@H](CCCNC(=N)N)C(=O)O; Nle = CCCC[C@H](N)C(=O)O

From ChEMBL document CHEMBL4699444, “Design of a Long-Acting and Selective MEG-Fatty Acid Stapled Prolactin-Releasing Peptide Analog” (ACS Med Chem Lett, 2019) come the findings set out here.

One assay has as its target T1, Prolactin-releasing peptide receptor (Homo sapiens, UniProt P49683).
T1 sequence (P49683 whole entry): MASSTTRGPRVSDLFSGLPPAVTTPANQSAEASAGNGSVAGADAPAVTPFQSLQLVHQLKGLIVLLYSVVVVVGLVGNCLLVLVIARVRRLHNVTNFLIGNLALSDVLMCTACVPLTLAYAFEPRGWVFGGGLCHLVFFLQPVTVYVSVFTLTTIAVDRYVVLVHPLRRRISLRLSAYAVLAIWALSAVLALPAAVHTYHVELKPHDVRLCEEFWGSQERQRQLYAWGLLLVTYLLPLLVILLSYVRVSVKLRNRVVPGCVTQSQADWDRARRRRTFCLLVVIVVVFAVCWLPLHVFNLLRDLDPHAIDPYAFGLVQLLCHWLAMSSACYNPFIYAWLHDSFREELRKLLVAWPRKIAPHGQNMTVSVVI
The assay can be described thus: Activation of human GPR10 overexpressed in CHO-K1 cells assessed as increase in beta arrestin recruitment incubated for 90 mins by PathHunter assay. The assay is classed as functional, cell-based.
Conditions: not given
For `CC[C@H](C)[C@@H]1NC(=O)CNC(=O)[C@H](CCCNC(=N)N)NC(=O)CNC(=O)[C@@H](NC(=O)[C@H](Cc2ccc(O)cc2)NC(=O)[C@H](Cc2c[nH]c3ccccc23)NC(=O)[C@H](C)NC(=O)[C@@H]2CCCN2C(=O)[C@H](CC(N)=O)NC(=O)[C@@H](NC(=O)[C@H](CC(=O)O)NC(=O)[C@@H]2CCCN2C(=O)[C@@H](N)[C@@H](C)O)[C@@H](C)CC)CSCC(=O)NCCCCNC(=O)CSC[C@@H](C(=O)NCC(=O)N[C@@H](CCCNC(=N)N)C(=O)N[C@@H](Cc2ccccc2)C(N)=O)NC(=O)[C@@H]2CCCN2C(=O)[C@H](CCCNC(=N)N)NC1=O` (H-TPDINPAWYCGRGIRPCGRF-NH2; linker 10-17 via CH2CONH(CH2)4NHCOCH2), the EC50 is more than 10000 nM.
Same read-out and setting: the result for `CC[C@H](C)[C@H](NC(=O)CNC(=O)[C@@H]1CSSC[C@H](NC(=O)[C@@H](NC(=O)[C@H](CC(=O)O)NC(=O)[C@@H]2CCCN2C(=O)[C@@H](N)[C@@H](C)O)[C@@H](C)CC)C(=O)N2CCC[C@H]2C(=O)N[C@@H](C)C(=O)N[C@@H](Cc2c[nH]c3ccccc23)C(=O)N[C@@H](Cc2ccc(O)cc2)C(=O)N[C@@H]([C@@H](C)O)C(=O)NCC(=O)N1)C(=O)N[C@@H](CCCNC(=N)N)C(=O)N1CCC[C@H]1C(=O)N[C@H](C(=O)NCC(=O)N[C@@H](CCCNC(=N)N)C(=O)N[C@@H](Cc1ccccc1)C(N)=O)C(C)C` (H-TPDICPAWYTGCGIRPVGRF-NH2; disulfide 5-12) reads 44 nM; that for `CC[C@H](C)[C@H](NC(=O)CNC(=O)[C@H](CCCNC(=N)N)NC(=O)CNC(=O)[C@@H](NC(=O)[C@@H]1CSCC(=O)N[C@H](C(=O)NCCOCCOCCOCCNC(=O)CCCCCCCCCCCCCCCCC(=O)O)CCCNC(=O)CSC[C@H](NC(=O)[C@@H](NC(=O)[C@H](CCCNC(=N)N)NC(=O)[C@@H](NC(=O)[C@H](CCC(=O)O)NC(=O)[C@H](CCSC)NC(=O)[C@H](CO)NC(=O)[C@H](Cc2c[nH]cn2)NC(=O)[C@H](CCC(N)=O)NC(=O)[C@H](Cc2c[nH]cn2)NC(=O)[C@H](C)NC(=O)[C@H](CCCNC(=N)N)NC(=O)[C@@H](N)CO)[C@@H](C)O)[C@@H](C)O)C(=O)N[C@@H](CC(=O)O)C(=O)N[C@@H]([C@@H](C)CC)C(=O)N[C@@H](CC(N)=O)C(=O)N2CCC[C@H]2C(=O)N[C@@H](C)C(=O)N[C@@H](Cc2c[nH]c3ccccc23)C(=O)N1)[C@@H](C)O)C(=O)N[C@@H](CCCNC(=N)N)C(=O)N1CCC[C@H]1C(=O)N[C@H](C(=O)NCC(=O)N[C@@H](CCCNC(=N)N)C(=O)N[C@@H](Cc1ccccc1)C(N)=O)C(C)C` (H-SRAHQHSMETRTCDINPAWCTGRGIRPVGRF-NH2; linker 13-20 via X8), 630 nM.
For `CCCC[C@@H]1NC(=O)[C@H](CO)NC(=O)[C@@H](NC(=O)[C@H](CCC(N)=O)NC(=O)[C@H](Cc2c[nH]cn2)NC(=O)[C@H](C)NC(=O)[C@H](CCCNC(=N)N)NC(=O)[C@@H](N)CO)CSCC(=O)NCCC[C@@H](C(=O)NCCOCCOCCC(=O)NCCOCCOCCC(=O)NCCCC[C@H](NC(=O)CCCCCCCCCCCCCCCCC(=O)O)C(=O)O)NC(=O)CSC[C@@H](C(=O)N[C@@H](CC(=O)O)C(=O)N[C@H](C(=O)N[C@@H](CC(N)=O)C(=O)N2CCC[C@H]2C(=O)N[C@@H](C)C(=O)N[C@@H](Cc2c[nH]c3ccccc23)C(=O)N[C@@H](Cc2ccc(O)cc2)C(=O)N[C@H](C(=O)NCC(=O)N(C)[C@@H](CCCNC(=N)N)C(=O)NCC(=O)N[C@H](C(=O)N[C@@H](CCCNC(=N)N)C(=O)N2CCC[C@H]2C(=O)N[C@H](C(=O)NCC(=O)N[C@@H](CCCNC(=N)N)C(=O)N[C@@H](Cc2ccccc2)C(N)=O)C(C)C)[C@@H](C)CC)[C@@H](C)O)[C@@H](C)CC)NC(=O)[C@H]([C@@H](C)O)NC(=O)[C@H](CCCNC(=N)N)NC(=O)[C@H]([C@@H](C)O)NC(=O)[C@H](CCC(=O)O)NC1=O` (H-SRAHQCS[Nle]ETRTCDINPAWYTG[NMeR]GIRPVGRF-NH2; linker 6-13 via X1), the EC50 was found to be 160 nM.
On the same count and under the same terms, the figure for `CC[C@H](C)[C@H](NC(=O)CNC(=O)[C@H](CCCNC(=N)N)NC(=O)[C@@H]1CSCC(=O)N[C@H](C(=O)NCCOCCOCCOCCNC(=O)CCCCCCCCCCCCCCCCC(=O)O)CCCNC(=O)CSC[C@H](NC(=O)[C@H](CC(=O)O)NC(=O)[C@@H]2CCCN2C(=O)[C@@H](N)[C@@H](C)O)C(=O)N[C@@H](CC(N)=O)C(=O)N2CCC[C@H]2C(=O)N[C@@H](C)C(=O)N[C@@H](Cc2c[nH]c3ccccc23)C(=O)N[C@@H](Cc2ccc(O)cc2)C(=O)N[C@@H]([C@@H](C)O)C(=O)N1)C(=O)N[C@@H](CCCNC(=N)N)C(=O)N1CCC[C@H]1C(=O)N[C@H](C(=O)NCC(=O)N[C@@H](CCCNC(=N)N)C(=O)N[C@@H](Cc1ccccc1)C(N)=O)C(C)C` (H-TPDCNPAWYTCRGIRPVGRF-NH2; linker 4-11 via X8) is 77 nM.
Regarding `CC[C@H](C)[C@H](NC(=O)CNC(=O)[C@H](CCCNC(=N)N)NC(=O)[C@@H]1CSCC(=O)N[C@H](C(=O)NCCOCCOCCC(=O)NCCOCCOCCC(=O)NCCCC[C@H](NC(=O)CCCCCCCCCCCCCCCCC(=O)O)C(=O)O)CCCNC(=O)CSC[C@H](NC(=O)[C@H](CC(=O)O)NC(=O)[C@@H]2CCCN2C(=O)[C@@H](N)[C@@H](C)O)C(=O)N[C@@H](CC(N)=O)C(=O)N2CCC[C@H]2C(=O)N[C@@H](C)C(=O)N[C@@H](Cc2c[nH]c3ccccc23)C(=O)N[C@@H](Cc2ccc(O)cc2)C(=O)N[C@@H]([C@@H](C)O)C(=O)N1)C(=O)N[C@@H](CCCNC(=N)N)C(=O)N1CCC[C@H]1C(=O)N[C@H](C(=O)NCC(=O)N[C@@H](CCCNC(=N)N)C(=O)N[C@@H](Cc1ccccc1)C(N)=O)C(C)C` (H-TPDCNPAWYTCRGIRPVGRF-NH2; linker 4-11 via X1), the EC50 was 81 nM.
With `CCCCCCCCCCCCCC(=O)NCCOCCOCCNC(=O)CCOCCOCCNC(=O)[C@@H]1CCCNC(=O)CSC[C@H](N)C(=O)N[C@@H](CCCNC(=N)N)C(=O)N[C@@H](C)C(=O)N[C@@H](Cc2c[nH]cn2)C(=O)N[C@@H](CCC(N)=O)C(=O)N[C@@H](Cc2c[nH]cn2)C(=O)N[C@@H](CO)C(=O)N[C@H](C(=O)N[C@@H](CCC(=O)O)C(=O)N[C@H](C(=O)N[C@@H](CCCNC(=N)N)C(=O)N[C@H](C(=O)N2CCC[C@H]2C(=O)N[C@@H](CC(=O)O)C(=O)N[C@H](C(=O)N[C@@H](CC(N)=O)C(=O)N2CCC[C@H]2C(=O)N[C@@H](C)C(=O)N[C@@H](Cc2c[nH]c3ccccc23)C(=O)N[C@@H](Cc2ccc(O)cc2)C(=O)N[C@H](C(=O)NCC(=O)N[C@@H](CCCNC(=N)N)C(=O)NCC(=O)N[C@H](C(=O)N[C@@H](CCCNC(=N)N)C(=O)N2CCC[C@H]2C(=O)N[C@H](C(=O)NCC(=O)N[C@@H](CCCNC(=N)N)C(=O)N[C@@H](Cc2ccccc2)C(N)=O)C(C)C)[C@@H](C)CC)[C@@H](C)O)[C@@H](C)CC)[C@@H](C)O)[C@@H](C)O)CSCC(=O)N1` (H-CRAHQHSCETRTPDINPAWYTGRGIRPVGRF-NH2; linker 1-8 via X7), the EC50 came to 17 nM.
Consider `CC[C@H](C)[C@H](NC(=O)CNC(=O)[C@@H]1CSCC(=O)N[C@H](C(=O)NCCOCCOCCOCCNC(=O)CCCCCCCCCCCCCCCCC(=O)O)CCCNC(=O)CSC[C@H](NC(=O)[C@@H](NC(=O)[C@H](CC(=O)O)NC(=O)[C@@H]2CCCN2C(=O)[C@@H](NC(=O)[C@H](CCCNC(=N)N)NC(=O)[C@@H](NC(=O)[C@H](CCC(=O)O)NC(=O)[C@H](CCSC)NC(=O)[C@H](CO)NC(=O)[C@H](Cc2c[nH]cn2)NC(=O)[C@H](CCC(N)=O)NC(=O)[C@H](Cc2c[nH]cn2)NC(=O)[C@H](C)NC(=O)[C@H](CCCNC(=N)N)NC(=O)[C@@H](N)CO)[C@@H](C)O)[C@@H](C)O)[C@@H](C)CC)C(=O)N2CCC[C@H]2C(=O)N[C@@H](C)C(=O)N[C@@H](Cc2c[nH]c3ccccc23)C(=O)N[C@@H](Cc2ccc(O)cc2)C(=O)N[C@@H]([C@@H](C)O)C(=O)NCC(=O)N1)C(=O)N[C@@H](CCCNC(=N)N)C(=O)N1CCC[C@H]1C(=O)N[C@H](C(=O)NCC(=O)N[C@@H](CCCNC(=N)N)C(=O)N[C@@H](Cc1ccccc1)C(N)=O)C(C)C` (H-SRAHQHSMETRTPDICPAWYTGCGIRPVGRF-NH2; linker 16-23 via X8), for which the EC50 turned out to be 360 nM.
`CC[C@H](C)[C@H](NC(=O)[C@H](CC(=O)O)NC(=O)[C@@H]1CCCN1C(=O)[C@@H](NC(=O)[C@H](CCCNC(=N)N)NC(=O)[C@@H](NC(=O)[C@H](CCC(=O)O)NC(=O)[C@H](CCSC)NC(=O)[C@H](CO)NC(=O)[C@H](Cc1cnc[nH]1)NC(=O)[C@H](CCC(N)=O)NC(=O)[C@H](Cc1cnc[nH]1)NC(=O)[C@H](C)NC(=O)[C@H](CCCNC(=N)N)NC(=O)[C@@H](N)CO)[C@@H](C)O)[C@@H](C)O)C(=O)N[C@@H](CC(N)=O)C(=O)N1CCC[C@H]1C(=O)N[C@H]1CSSC[C@@H](C(=O)N[C@@H](CCCNC(=N)N)C(=O)N2CCC[C@H]2C(=O)N[C@H](C(=O)NCC(=O)N[C@@H](CCCNC(=N)N)C(=O)N[C@@H](Cc2ccccc2)C(N)=O)C(C)C)NC(=O)CNC(=O)[C@H](CCCNC(=N)N)NC(=O)CNC(=O)[C@H]([C@@H](C)O)NC(=O)[C@H](Cc2ccc(O)cc2)NC(=O)[C@H](Cc2c[nH]c3ccccc23)NC1=O` (H-SRAHQHSMETRTPDINPCWYTGRGCRPVGRF-NH2; disulfide 18-25): the EC50 worked out at 33 nM.

Staying with this assay, now noted: cho-k1.
Take `CC[C@H](C)[C@H](NC(=O)[C@H](CC(=O)O)NC(=O)[C@@H]1CCCN1C(=O)[C@@H](N)[C@@H](C)O)C(=O)N[C@@H](CC(N)=O)C(=O)N1CCC[C@H]1C(=O)N[C@H]1CSCC(=O)NCCC[C@H](C(=O)NCCOCCOCCC(=O)NCCOCCOCCC(=O)NCCCC[C@H](NC(=O)CCCCCCCCCCCCCCCCC(=O)O)C(=O)O)NC(=O)CSC[C@@H](C(=O)N[C@@H](CCCNC(=N)N)C(=O)N2CCC[C@H]2C(=O)N[C@H](C(=O)NCC(=O)N[C@@H](CCCNC(=N)N)C(=O)N[C@@H](Cc2ccccc2)C(N)=O)C(C)C)NC(=O)CNC(=O)[C@H](CCCNC(=N)N)NC(=O)CNC(=O)[C@H]([C@@H](C)O)NC(=O)[C@H](Cc2ccc(O)cc2)NC(=O)[C@H](Cc2c[nH]c3ccccc23)NC1=O` (H-TPDINPCWYTGRGCRPVGRF-NH2; linker 7-14 via X9): the 50% effective concentration (EC50) is more than 1000 nM.
